Patent US10662156B2, “Guanidine derivative and medical use thereof” (Toray Industries, Inc., priority 2016, dated 2020)
Where a name gives a salt, the structure may show the parent alone.

Target: recombinant GST fusion MALT1 (human MALT1) (Homo sapiens (Human), UniProt Q9UDY8)
Assay: Evaluation of inhibition of protease activity of MALT1 (cleavage of fluorescent peptide substrate Ac-LRSR-AMC)
Format: biochemical
Conditions: substrate Ac-LRSR-AMC 20 μmol/L, 30° C. for 80 minutes
Experimental: The guanidine derivative (I) or the pharmacologically acceptable salt thereof was evaluated for its inhibition of the protease activity of MALT1 in an in vitro experimental system in accordance with the method described in the literature (Cancer Cell, 2012, Vol. 22, p. 825-837). Specifically, the evaluation was conducted by measuring the degree of reduction in fluorescence value by the compound relative to elevation in fluorescence value resulting from the cleavage of a fluorescently labeled artificial peptide substrate by recombinant MALT1.
A) Preparation of Recombinant GST Fusion MALT1:
Full-length cDNA of human MALT1 gene (GenBank accession No: AB026118.1) amplified by PCR was inserted in flame to a SalI site located downstream of GST gene in a pGEX6P3 vector (GE Healthcare Japan Corp.) to prepare a vector (hereinafter, referred to as a pGEX6P3-MALT1 vector). Subsequently, E. coli for protein expression (BL21-RIL-codon plus-DE3, Agilent Technologies, Inc.) was transformed with the pGEX6P3-MALT1 vector and then analyzed by ampicillin resistance screening and colony PCR to obtain an E. coli strain expressing recombinant GST fusion MALT1. Protein expression was induced with isopropyl-(3-thiogalactopyranoside. After the expression induction, E. coli precipitates were recovered by centrifugation from the E. coli culture solution, and the E. coli precipitates were homogenized and then centrifuged to obtain a supernatant. The supernatant was purified using GSTrap FF column (GE Healthcare Japan Corp.) to obtain recombinant GST fusion MALT1.
B) Evaluation of Inhibition of Protease Activity of MALT1:
To 89 μL of an enzyme solution ([…] GST fusion MALT1, 50 mmol/L MES, 150 mmol/L NaCl, 10% sucrose, 0.1% CHAPS, 10 mmol/L dithiothreitol, and 1 mol/L tri-ammonium citrate) per specimen, 1 μL of a test compound (DMSO-diluted solution) of each concentration was added to prepare a mixed solution. The mixed solution was incubated at room temperature for 30 minutes, followed by the measurement of the fluorescence value of the mixed solution (fluorescence value of the first measurement) (Ex: 380 nm, Em: 460 nm; Envision (Perkin Elmer Inc.)). Next, 10 μL of 200 μmol/L substrate (Ac-LRSR-AMC, SM Biochemicals LLC) was added (final concentration: 20 μmol/L) to the mixed solution, and the mixture was reacted by incubation at 30° C. for 80 minutes, followed by the measurement of the fluorescence value of the reaction solution (fluorescence value of the second measurement) (Ex: 380 nm, Em: 460 nm; Envision (Perkin Elmer Inc.)). A “well nonsupplemented with the test compound (only DMSO was added), nonsupplemented with the enzyme and supplemented with the substrate”, and a “well nonsupplemented with the test compound (only DMSO was added), supplemented with the enzyme and supplemented with the substrate” were established.
The fluorescence value of the first measurement was defined as “F1”, and the fluorescence value of the second measurement was defined as “F2”. F2−F1 of the “well nonsupplemented with the test compound (only DMSO was added), nonsupplemented with the enzyme and supplemented with the substrate” was defined as “Fback”, F2−F1 of the “well nonsupplemented with the test compound (only DMSO was added), supplemented with the enzyme and supplemented with the substrate” was defined as “Fpositive”, and F2−F1 of the “well supplemented with the test compound, supplemented with the enzyme and supplemented with the substrate” was defined as “Fsample”. The rate of inhibition (%) of the protease activity of MALT1 by the test compound was calculated according to the following expression. Rate of inhibition (%)=100×(1−(Fsample−Fback)/(Fpositive−Fback))

Sequence of recombinant GST fusion MALT1 (human MALT1) (Q9UDY8 whole entry, the tested form may be a part): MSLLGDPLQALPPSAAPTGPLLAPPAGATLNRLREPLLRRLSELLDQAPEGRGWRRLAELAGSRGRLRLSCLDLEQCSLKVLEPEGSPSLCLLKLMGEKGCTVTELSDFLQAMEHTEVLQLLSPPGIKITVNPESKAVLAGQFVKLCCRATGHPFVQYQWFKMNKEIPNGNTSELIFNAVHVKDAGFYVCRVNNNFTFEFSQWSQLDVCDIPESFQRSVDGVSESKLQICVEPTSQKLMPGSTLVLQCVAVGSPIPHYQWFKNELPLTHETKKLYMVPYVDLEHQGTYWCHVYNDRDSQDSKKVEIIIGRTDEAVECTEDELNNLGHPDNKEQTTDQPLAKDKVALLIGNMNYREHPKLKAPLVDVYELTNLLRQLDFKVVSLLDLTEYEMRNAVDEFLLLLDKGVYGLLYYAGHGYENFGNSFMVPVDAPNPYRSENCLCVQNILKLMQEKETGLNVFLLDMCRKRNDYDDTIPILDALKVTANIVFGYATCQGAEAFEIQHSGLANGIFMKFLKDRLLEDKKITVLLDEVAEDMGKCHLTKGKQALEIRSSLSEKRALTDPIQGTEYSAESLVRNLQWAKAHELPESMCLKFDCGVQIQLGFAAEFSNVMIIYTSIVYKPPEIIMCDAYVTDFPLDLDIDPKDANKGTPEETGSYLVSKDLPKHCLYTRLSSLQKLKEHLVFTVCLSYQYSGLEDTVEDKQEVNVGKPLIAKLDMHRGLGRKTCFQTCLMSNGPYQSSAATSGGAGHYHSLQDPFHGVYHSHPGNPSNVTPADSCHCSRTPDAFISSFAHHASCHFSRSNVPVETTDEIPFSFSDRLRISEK

IC50 [µM]	SMILES
0.532	N/C(=N\S(=O)(=O)c1cccc(F)c1)NCc1cnc(-c2ccc(Cl)cc2)c(-c2ccc(Cl)cc2)c1 [Compound of Example 27, N-(amino(((5,6-bis(4-chlorophenyl)pyridin-3-yl)methyl)amino)methylene)-3-fluorobenzenesulfonamide]
0.356	N/C(=N\S(=O)(=O)c1ccc(F)cc1)NCc1cnc(-c2ccc(Cl)cc2)c(-c2ccc(Cl)cc2)c1 [Compound of Example 28, N-(amino(((5,6-bis(4-chlorophenyl)pyridin-3-yl)methyl)amino)methylene)-4-fluorobenzenesulfonamide]
0.1	N/C(=N\S(=O)(=O)c1cccs1)NCc1cnc(-c2ccc(Cl)cc2)c(-c2ccc(Cl)cc2)c1 [Compound of Example 29, N-(amino(((5,6-bis(4-chlorophenyl)pyridin-3-yl)methyl)amino)methylene)thiophene-2-sulfonamide]
0.115	N/C(=N\S(=O)(=O)c1ccsc1)NCc1cnc(-c2ccc(Cl)cc2)c(-c2ccc(Cl)cc2)c1 [Compound of Example 30, N-(amino(((5,6-bis(4-chlorophenyl)pyridin-3-yl)methyl)amino)methylene)thiophene-3-sulfonamide]
0.102	N/C(=N\S(=O)(=O)c1ccco1)NCc1cnc(-c2ccc(Cl)cc2)c(-c2ccc(Cl)cc2)c1 [Compound of Example 31, N-(amino(((5,6-bis(4-chlorophenyl)pyridin-3-yl)methyl)amino)methylene)furan-2-sulfonamide]
0.156	N/C(=N\S(=O)(=O)c1ccoc1)NCc1cnc(-c2ccc(Cl)cc2)c(-c2ccc(Cl)cc2)c1 [Compound of Example 32, N-(amino(((5,6-bis(4-chlorophenyl)pyridin-3-yl)methyl)amino)methylene)furan-3-sulfonamide]
2.07	Cc1ccc(-c2ncc(CN/C(N)=N/S(=O)(=O)c3cccs3)cc2-c2ccc(C(F)(F)F)cc2)cc1 [Compound of Example 33, N-(amino(((6-(4-methylphenyl)-5-(4-(trifluoromethyl)phenyl)pyridin-3-yl)methyl)amino)methylene)thiophene-2-sulfonamide Hydrochloride]
0.817	N/C(=N\C(=O)c1ccccc1)NCc1cnc(-c2ccc(Cl)cc2)c(-c2ccc(Cl)cc2)c1 [Compound of Example 34, N-(amino(((5,6-bis(4-chlorophenyl)pyridin-3-yl)methyl)amino)methylene)benzamide]
0.314	N/C(=N\C(=O)c1cccs1)NCc1cnc(-c2ccc(Cl)cc2)c(-c2ccc(Cl)cc2)c1 [Compound of Example 35, N-(amino(((5,6-bis(4-chlorophenyl)pyridin-3-yl)methyl)amino)methylene)thiophene-2-carboxamide Hydrochloride]
0.237	N/C(=N\S(=O)(=O)c1ccccc1)NCc1cnc(-c2ccc(Cl)cc2F)c(-c2ccc(Cl)cc2)c1 [Compound of Example 36, N-(amino(((6-(4-chloro-2-fluorophenyl)-5-(4-chlorophenyl)pyridin-3-yl)methyl)amino)methylene)benzenesulfonamide]
1.27	COc1ccc(-c2cc(CN/C(N)=N/S(=O)(=O)c3ccccc3)cnc2-c2ccc(Cl)cc2)cc1F [Compound of Example 37, N-(amino(((6-(4-chlorophenyl)-5-(3-fluoro-4-methoxyphenyl)pyridin-3-yl)methyl)amino)methylene)benzenesulfonamide]
0.09	NN/C(=N\S(=O)(=O)c1ccccc1)NCc1cnc(-c2ccc(Cl)cc2)c(-c2ccc(Cl)cc2)c1 [Compound of Example 38, N-((5,6-bis(4-chlorophenyl)pyridin-3-yl)methyl)-N′-(phenylsulfonyl)hydrazinecarboximidate]
0.106	O=S(=O)(/N=C(\NO)NCc1cnc(-c2ccc(Cl)cc2)c(-c2ccc(Cl)cc2)c1)c1ccccc1 [Compound of Example 39, N-((((5,6-bis(4-chlorophenyl)pyridin-3-yl)methyl)amino)(hydroxyamino)methylene)benzenesulfonamide]
0.037	CN/C(=N\S(=O)(=O)c1ccccc1)NCc1cnc(-c2ccc(Cl)cc2)c(-c2ccc(Cl)cc2)c1 [Compound of Example 40]
0.679	NC(=O)/N=C(\N)NCc1cnc(-c2ccc(Cl)cc2)c(-c2ccc(Cl)cc2)c1 [Compound of Example 41, 1-(amino(((5,6-bis(4-chlorophenyl)pyridin-3-yl)methyl)amino)methylene)urea Hydrochloride]
0.023	NC(=NS(=O)(=O)c1cccs1)NCc1cc(-c2ccc(Cl)cc2)c(-c2ccc(Cl)cc2)cn1 [Compound of Example 43, N-(amino(((4,5-bis(4-chlorophenyl)pyridin-2-yl)methyl)amino)methylene)thiophene-2-sulfonamide]
0.221	NC(=NS(=O)(=O)c1ccccc1)NCc1ccc(-c2ccc(Cl)cc2)c(-c2ccc(Cl)cc2)n1 [Compound of Example 45, N-(amino(((5,6-bis(4-chlorophenyl)pyridin-2-yl)methyl)amino)methylene)benzenesulfonamide Hydrochloride]
0.539	CC(N/C(N)=N/S(=O)(=O)c1ccccc1)c1cnc(-c2ccc(Cl)cc2)c(-c2ccc(Cl)cc2)c1 (stereo not shown) [Compound of Example 46, N-(amino((1-(5,6-bis(4-chlorophenyl)pyridin-3-yl)ethyl)amino)methylene)benzenesulfonamide]
0.32	N#Cc1cccc(S(=O)(=O)/N=C(\N)NCc2cnc(-c3ccc(Cl)cc3)c(-c3ccc(Cl)cc3)c2)c1 [Compound of Example 47, N-(amino(((5,6-bis(4-chlorophenyl)pyridin-3-yl)methyl)amino)methylene)-3-cyanobenzenesulfonamide]
0.333	N/C(=N\S(=O)(=O)c1cccc(Cl)c1)NCc1cnc(-c2ccc(Cl)cc2)c(-c2ccc(Cl)cc2)c1 [Compound of Example 48, N-(amino(((5,6-bis(4-chlorophenyl)pyridin-3-yl)methyl)amino)methylene)-3-chlorobenzenesulfonamide]
0.326	COc1ccccc1S(=O)(=O)/N=C(\N)NCc1cnc(-c2ccc(Cl)cc2)c(-c2ccc(Cl)cc2)c1 [Compound of Example 49, N-(amino(((5,6-bis(4-chlorophenyl)pyridin-3-yl)methyl)amino)methylene)-2-methoxybenzenesulfonamide]
0.114	COc1cccc(S(=O)(=O)/N=C(\N)NCc2cnc(-c3ccc(Cl)cc3)c(-c3ccc(Cl)cc3)c2)c1 [Compound of Example 50, N-(amino(((5,6-bis(4-chlorophenyl)pyridin-3-yl)methyl)amino)methylene)-3-methoxybenzenesulfonamide]
0.185	CCOc1cccc(S(=O)(=O)/N=C(\N)NCc2cnc(-c3ccc(Cl)cc3)c(-c3ccc(Cl)cc3)c2)c1 [Compound of Example 51, N-(amino(((5,6-bis(4-chlorophenyl)pyridin-3-yl)methyl)amino)methylene)-3-ethoxybenzenesulfonamide]
0.39	N#Cc1ccc(S(=O)(=O)/N=C(\N)NCc2cnc(-c3ccc(Cl)cc3)c(-c3ccc(Cl)cc3)c2)cn1 [Compound of Example 52, N-(amino(((5,6-bis(4-chlorophenyl)pyridin-3-yl)methyl)amino)methylene)-6-cyanopyridine-3-sulfonamide]
2.01	Cn1cc(S(=O)(=O)/N=C(\N)NCc2cnc(-c3ccc(Cl)cc3)c(-c3ccc(Cl)cc3)c2)cn1 [Compound of Example 53, N-(amino(((5,6-bis(4-chlorophenyl)pyridin-3-yl)methyl)amino)methylene)-1-methyl-1H-pyrazole-4-sulfonamide]
